Test results taken from paper PMC11602716 (Nature, 2024).

Assays:
mice = test: Saccharin-conditioned taste avoidance; assay type: in vivo, mouse; conditions: 0.15% saccharin, s.c. 325 nmol kg^−1 EB1002 or 10 nmol kg^−1 semaglutide, n = 10 per group
NK1R, NK2R and NK3R = conditions: cited from earlier work
humans = conditions: cited from earlier work

Row | Compound | average weight loss (humans) | other results
1 | CC[C@H](C)[C@H](NC(=O)[C@H](Cc1ccccc1)NC(=O)[C@H](CCC(=O)O)NC(=O)[C@H](CCCCNC(=O)COCCOCCNC(=O)COCCOCCNC(=O)CC[C@H](NC(=O)CCCCCCCCCCCCCCCCC(=O)O)C(=O)O)NC(=O)[C@H](C)NC(=O)[C@H](C)NC(=O)[C@H](CCC(N)=O)NC(=O)CNC(=O)[C@H](CCC(=O)O)NC(=O)[C@H](CC(C)C)NC(=O)[C@H](Cc1ccc(O)cc1)NC(=O)[C@H](CO)NC(=O)[C@H](CO)NC(=O)[C@@H](NC(=O)[C@H](CC(=O)O)NC(=O)[C@H](CO)NC(=O)[C@@H](NC(=O)[C@H](Cc1ccccc1)NC(=O)[C@@H](NC(=O)CNC(=O)[C@H](CCC(=O)O)NC(=O)C(C)(C)NC(=O)[C@@H](N)Cc1cnc[nH]1)[C@@H](C)O)[C@@H](C)O)C(C)C)C(=O)N[C@@H](C)C(=O)N[C@@H](Cc1c[nH]c2ccccc12)C(=O)N[C@@H](CC(C)C)C(=O)N[C@H](C(=O)N[C@@H](CCCNC(=N)N)C(=O)NCC(=O)N[C@@H](CCCNC(=N)N)C(=O)NCC(=O)O)C(C)C [semaglutide] |  | conditioned taste avoidance (mice): aversive
2 | neurokinin A (4–10)-S5K/L9mL/M10Nle |  | NK2R selectivity (NK1R, NK2R and NK3R): some degree of selectivity
3 | retatrutide | up to 22.1% | 
4 | survodutide | up to 14.9% | 
